Values of other authors in patent US5935597A, “Drug delivery devices and methods for treatment of viral and microbial infections and wasting syndromes” (Cryopreservation Technologies CC, priority 1995, dated 1999).

Experiments:
[1] = tested on: HIV; settings: cited from earlier work
[2] = appetite enhancers, wasting syndromes; cited from earlier work
[3] = tested on: mouse sarcoma allograft; settings: in vivo; cited from earlier work
[4] = tested on: human cancer; settings: cited from earlier work
[5] = tested on: Human Herpes Virus 6 (HHV-6); settings: certain cultured cell lines; cited from earlier work
[6] = tested on: HIV; settings: certain cultured cell lines; cited from earlier work
[7] = tested on: human cancer xenografts; settings: intraperitoneal injection, nude mice; cited from earlier work
[8] = tested on: HIV-1; settings: cells infected with HIV-1 isolates, in vitro; cited from earlier work
[9] = tested on: HIV-2; settings: cells infected with HIV-2 isolates, in vitro; cited from earlier work

Cc1cn([C@H]2C=C[C@@H](CO)O2)c(=O)[nH]c1=O [d4T, stavudine]
anti-HIV activity [1]: active against HIV

CC(=O)O[C@]1(C(C)=O)CC[C@H]2[C@@H]3C=C(C)C4=CC(=O)CC[C@]4(C)[C@H]3CC[C@@]21C [megestrol acetate]
weight gain [2]: tended to gain only fat and not overall body mass

NC=O [formamide]
toxicity [3]: toxic side-effects

C[S+](C)[O-] [DMSO, dimethylsulfoxide]
objective response ([4]; human cancer patients): no objective response
in vitro replication of HHV-6 [5]: inhibit in vitro replication of HIV and Human Herpes Virus 6 (HHV-6)
in vitro replication of HIV [6]: inhibit in vitro replication of HIV

CNC=O [NMF, N-methylformamide]
anticancer activity ([4]; oral, human patients with cancer of the head and neck (Planting et al.)): only minimal activity
hepatotoxicity and response ([4]; oral, human patients with cancer of the head and neck (Vogel et al.)): hepatotoxicity with no beneficial response
growth of human cancer xenografts [7]: slow the growth of certain human cancer xenografts

CCCCCc1cc(O)c2c(c1)OC(C)(C)[C@@H]1CCC(C)=C[C@@H]21 [dronabinol]
weight gain [2]: tended to gain only fat and not overall body mass

B1: RANTES: chemokine secreted by CD8+ T cells (protein, UniProt P13501 24-91, looked up)
C-C motif chemokine 5: SPYSSDTTPCCFAYIARPLPRAHIKEYFYTSGKCSNPAVVFVTRKNRQVCANPEKKWVREYINSLEMS
HIV-1 p24 antigen production [8]: suppress HIV-1 p24 antigen production
HIV-1 p24 antigen production [9]: suppress HIV-1 p24 antigen production

B2: MIP-1β: chemokine secreted by CD8+ T cells (protein, UniProt P13236 24-92, looked up)
C-C motif chemokine 4: APMGSDPPTACCFSYTARKLPRNFVVDYYETSSLCSQPAVVFQTKRSKQVCADPSESWVQEYVYDLELN
modifications: ends and bridges not checked
notes: chemokine secreted by CD8+ T cells
HIV-1 p24 antigen production [8]: suppress HIV-1 p24 antigen production
HIV-1 p24 antigen production [9]: suppress HIV-1 p24 antigen production

B3: MIP-1α: chemokine secreted by CD8+ T cells (protein, UniProt P10147 24-92, looked up)
C-C motif chemokine 3: SLAADTPTACCFSYTSRQIPQNFIADYFETSSQCSKPGVIFLTKRSRQVCADPSEEWVQKYVSDLELSA
HIV-1 p24 antigen production [8]: suppress HIV-1 p24 antigen production
HIV-1 p24 antigen production [9]: suppress HIV-1 p24 antigen production
